Assay results taken from ChEMBL document CHEMBL5154722, “Identification of new potent anticancer derivatives through simplifying the core structure and modification on their 14- hydroxyl group from oridonin” (Eur J Med Chem, 2022).
Active and inactive are the calls of the source. The calls are words filed in the database; no cut-off is given here.

Key:
[1] = Toxicity in ICR mouse allografted with mouse H22 cells assessed as change in body weight at 20 mg/kg, iv administered once a day for 21 days after 7 days of tumor implantation measured every two days; format: organism-based; conditions: in vivo, 504 h, time 21 day
[2] = tested on: SMMC-7721; experiment: Antiproliferative activity against human […] cells assessed as reduction in cell viability incubated for 72 hrs by MTT assay; format: functional, cell-based; conditions: SMMC-7721, 72 h
[3] = tested on: K562; experiment: Antiproliferative activity against human K562 cells assessed as reduction in cell viability incubated for 72 hrs by MTT assay; format: functional, cell-based; conditions: K562, 72 h
[4] = tested on: MDA-MB-231; experiment: Antiproliferative activity against human MDA-MB-231 cells assessed as reduction in cell viability incubated for 72 hrs by MTT assay; format: functional, cell-based; conditions: MDA-MB-231, 72 h
[5] = tested on: H22; experiment: Antitumor activity against mouse H22 cells allografted in ICR mouse assessed as reduction in tumor volume at 20 mg/kg, iv administered once a day for 21 days after 7 days of tumor implantation measured every two days; format: functional, organism-based; conditions: time 21.0 day
[6] = tested on: HeLa; experiment: Antiproliferative activity against human HeLa cells assessed as reduction in cell viability incubated for 72 hrs by MTT assay; format: functional, cell-based
[7] = Antiproliferative activity against human U-87 MG cells assessed as reduction in cell viability incubated for 72 hrs by MTT assay; format: functional, cell-based, U-87MG ATCC
[8] = Selectivity index, ratio of IC50 for human L02 cells to IC50 for human SMMC-7721 cells; format: toxicity; conditions: L02 cells and SMMC-7721 cells, read-out: Ratio IC50
[9] = tested on: MCF7; experiment: Antiproliferative activity against human MCF7 cells assessed as reduction in cell viability incubated for 72 hrs by MTT assay; format: functional, cell-based; conditions: MCF7, 72 h
[10] = Cytotoxicity against human L02 cells assessed as reduction in cell viability incubated for 72 hrs by MTT assay; format: toxicity, cell-based
[11] = tested on: H22; experiment: Antiproliferative activity against mouse H22 cells assessed as reduction in cell viability incubated for 72 hrs by MTT assay; format: functional, cell-based; conditions: H22, 72 h
[12] = tested on: SW480; experiment: Antiproliferative activity against human SW480 cells assessed as reduction in cell viability incubated for 72 hrs by MTT assay; format: functional, cell-based; conditions: SW480, 72 h
[13] = tested on: H22; experiment: Antitumor activity against mouse H22 cells allografted in ICR mouse assessed as reduction in tumor weight at 20 mg/kg, iv administered once a day for 21 days after 7 days of tumor implantation; format: functional; set-up: scale not given: the % may be the effect or the level left; conditions: time 21 day
[14] = tested on: MGC-803; experiment: Antiproliferative activity against human MGC-803 cells assessed as reduction in cell viability incubated for 72 hrs by MTT assay; format: functional, cell-based; conditions: MGC-803, 72 h
[15] = tested on: MCF7; experiment: Potency index, ratio of IC50 for oridonin to IC50 for test compound for antiproliferative activity against MCF7 cells; format: functional, Homo sapiens
[16] = tested on: K562; experiment: Potency index, ratio of IC50 for oridonin to IC50 for test compound for antiproliferative activity against K562 cells; format: functional, Homo sapiens
[17] = tested on: SMMC-7721; experiment: Potency index, ratio of IC50 for oridonin to IC50 for test compound for antiproliferative activity against SMMC-7721 cells; format: functional, Homo sapiens
[18] = tested on: MDA-MB-231; experiment: Potency index, ratio of IC50 for oridonin to IC50 for test compound for antiproliferative activity against MDA-MB-231 cells; format: functional, Homo sapiens
[19] = tested on: H22; experiment: Antitumor activity against mouse H22 cells allografted in ICR mouse assessed as reduction in tumor weight at 8 mg/kg, iv administered every two days for 21 days after 7 days of tumor implantation; format: functional; set-up: scale not given: the % may be the effect or the level left; conditions: time 21 day
[20] = Toxicity in ICR mouse allografted with mouse H22 cells assessed as reduction in body weight at 8 mg/kg, iv administered every two days for 21 days after 7 days of tumor implantation measured every two days; format: organism-based; conditions: in vivo, 504 h, time 21 day

| SMILES | Activity [1] | IC50 [2] | IC50 [3] | IC50 [4] | Activity [5] | IC50 [6] | IC50 [7] | selectivity ratio [8] | IC50 [9] | IC50 at 72 h [10] | IC50 [11] | IC50 [12] | Activity [13] | IC50 [14] | Ratio IC50 [15] | Ratio IC50 [16] | Ratio IC50 [17] | Ratio IC50 [18] | Activity [19] | Activity [20] |
| --- | --- | --- | --- | --- | --- | --- | --- | --- | --- | --- | --- | --- | --- | --- | --- | --- | --- | --- | --- | --- |
| C=C1C(=O)[C@]23[C@H](OC(=O)/C=C/c4ccncc4)[C@H]1CC[C@H]2[C@]12CCCC(C)(C)[C@H]1C[C@@]3(O)OC2 | Non-Toxic | 770 nM | 340 nM | 720 nM | Active | 940 nM | 900 nM | 6.79 | 710 nM | 5240 nM | 780 nM | 800 nM | 52.34% | 960 nM |  |  |  |  |  |  |
| C=C1C(=O)[C@@]23C(=O)C[C@@H]4C(C)(C)CCC[C@@]4(COC(C)=O)[C@@H]2CC[C@@H]1[C@H]3OC(C)=O |  | 2090 nM | 990 nM | 1670 nM |  |  |  |  | 1300 nM |  |  |  |  |  | 8.5 | 4 | 6.2 | 6.9 |  |  |
| C=C1C(=O)[C@]23[C@H](OC(=O)/C=C/c4ccncc4)[C@H]1CC[C@H]2[C@]12C=CCC(C)(C)[C@H]1[C@H](O)[C@@]3(O)OC2 | Non-Toxic | 350 nM | 210 nM | 640 nM | Active | 970 nM | 1160 nM | 17.7 | 1310 nM | 6230 nM | 360 nM | 1110 nM | 56.76% | 1150 nM |  |  |  |  |  |  |
| CC(=O)O[C@H]1C(=O)[C@@]2(C)[C@H]([C@H](OC(=O)c3ccccc3)[C@]3(O)C[C@H](OC(=O)[C@H](O)[C@@H](NC(=O)c4ccccc4)c4ccccc4)C(C)=C1C3(C)C)[C@]1(OC(C)=O)CO[C@@H]1C[C@@H]2O [PACLITAXEL] |  |  |  |  |  |  |  |  |  |  |  |  |  |  |  |  |  |  | 90.39% | Toxic |
